Source: patent US20200093929A1, “PHARMACEUTICAL COMPOSITION FOR THE PREVENTION AND TREATMENT OF MEMORY AND COGNITIVE DEFICITS RELATED TO AGEING” (IGEA PHARMA N.V., priority 2017, published 2020)
Marks after values point to notes of the source that are not given here.

How the values were obtained:
[1] = system: N2a (ECACC) mouse neuroblastoma cells; test: Cell viability by MTT reduction test in N2a cells, with and without Aβ1-42 prefibrillar aggregates; assay type: cell-based; settings: for Comparison of the results among the glutathione thioesters used (cell viability, mTOR P, ACi): micromolar levels, with and without Aβ1-42 aggregates; for Comparison of the results among glycated oleuropein, oleuropein aglycone and hydroxytyrosol: Example 1 cell experiments
Procedure: (§1) N2a (ECACC) mouse neuroblastoma cells, plated in the presence of MEM integrated with non-essential amino acids, 10% FCS, antibiotics and glutamine, were exposed for 48 h to micromolar levels of oleuropein aglycone and/or glutathione thioesters (GST), in the presence and in the absence of prefibrillar aggregates of Aβ1-42 peptides (Lambert M, et al. J. Neurochem. 2001, 79:595-605). […] In the control plates (CTRL) the cells were incubated under the same conditions in the presence of the culture medium alone. The following were then evaluated: • the state of cell viability through the MTT reduction test (Pensalfini A et al., Free
(§2) Rad Biol Med 2008, 44: 1624-1636). • the level of mTOR substrate phosphorylation of kinase p70 S6 (mTOR P) by western blot analysis and subsequent densitometry (Grossi C, et al., PLoS ONE 2013, 8: e71702) • the level of intracellular antioxidant capacity (ACi) through hydrosolublescavenger doses in the cellular lysates in chemiluminescence, using • the Pholasin photoprotein (ABEL Antioxidant Test Kit, Knight Scientific Ltd., UK) as reported in Cecchi C., et al. Neurobiol. Aging 28: 863-876, 2007.
(§3) ACi values were correct for the % of viable cells. AP=toxic prefibrillar aggregates.

[2] = as above; assay type: cell-based, mouse; settings: mouse, N2a (ECACC) neuroblastoma cells; read-out: Cell viability (MTT test), % respect to controls
Procedure: as §1, §2, §3

mTOR = mTOR substrate phosphorylation of kinase p70 S6 (mTOR P), western blot and densitometry, N2a cells; assay type: cell-based, mouse; settings: 48 h
Procedure: as §1, §2, §3

[3] = system: N2a (ECACC) mouse neuroblastoma cells; test: Intracellular antioxidant capacity (ACi) in cell lysates, Pholasin chemiluminescence, N2a cells; assay type: cell-based; settings: 48 h, corrected for % viable cells, CTRL 2.60
Procedure: as §1, §2, §3

[4] = in the presence of Aβ42 AP 3 μM (OLE 2 µM; GST 3 µM)
[5] = substance(s) alone, no Aβ42 AP added (Aβ42 AP 3 μM; OLE 2 µM; GST 3 µM)

SMILES	Comparison of the results among the glutathione thioesters used (cell viability, mTOR P, ACi) ([1]; N2a cells, 48 h)	Comparison of the results among glycated oleuropein, oleuropein aglycone and hydroxytyrosol [1]	further results
CCCCCCCC/C=C\CCCCCCCCSC[C@H](NC(=O)CC[C@H](N)C(=O)O)C(=O)NCC(=O)O [S-oleyl-glutathione]	equivalent results	–	–
CC/C=C\C/C=C\C/C=C\C/C=C\C/C=C\C/C=C\CCC(=O)SC[C@H](NC(=O)CC[C@H](N)C(=O)O)C(=O)NCC(=O)O [S-docohexaenoyl-glutathione]	equivalent results	–	–
CC/C=C\C/C=C\C/C=C\CCCCCCCC(=O)SCC(NC(=O)CCC(N)C(=O)O)C(=O)NCC(=O)O (stereo not drawn) [S-linolenoyl-glutathione]	equivalent results	–	–
CCCCC/C=C\C/C=C\CCCCCCCCSC[C@H](NC(=O)CC[C@H](N)C(=O)O)C(=O)NCC(=O)O [S-linoleyl-glutathione]	equivalent results	–	–
C/C=C1/C(O)OC=C(C(=O)OC)[C@H]1CC(=O)OCCc1ccc(O)c(O)c1 (mixture of isomers) [OLE, oleuropein aglycone]	–	No significant differences	viability at 48 h, 2 µM [2]: 98%; Cell viability (MTT test), % respect to controls ([1]; N2a cells, 48 h, in the presence of Aβ42 AP 3 μM (OLE 2 µM; GST 3 µM)): 65* %; mTOR P, % respect to controls (mTOR; [4]): 69%; mTOR P, % respect to controls (mTOR; [5]): 12* %; ACi, mmol/L GSH Equivalent [3, 4]: 1.55* mmol/L GSH Equivalent; ACi, mmol/L GSH Equivalent [3, 5]: 2.68 mmol/L GSH Equivalent
C/C=C1/[C@H](O[C@@H]2O[C@H](CO)[C@@H](O)[C@H](O)[C@H]2O)OC=C(C(=O)OC)[C@H]1CC(=O)OCCc1ccc(O)c(O)c1 [glycated oleuropein, oleuropein]	–	No significant differences	–
